Drawing on patent publication EP2970215B1, “PYRROLIDINE DERIVATIVES, PHARMACEUTICAL COMPOSITIONS CONTAINING THEM, AND THEIR USE IN THERAPY” (AbbVie Deutschland GmbH & Co. KG, priority 2013, dated 2014), this text covers Ki for 26 compounds.

In the test the target is T1, human GlyT1c transporter (Homo sapiens, UniProt P48067).
T1 construct: expressed in transfected cells; host or cells: CHO cells (recombinant; line hGlyT1c_5_CHO is named for the uptake assay)
T1 sequence (P48067 1-706): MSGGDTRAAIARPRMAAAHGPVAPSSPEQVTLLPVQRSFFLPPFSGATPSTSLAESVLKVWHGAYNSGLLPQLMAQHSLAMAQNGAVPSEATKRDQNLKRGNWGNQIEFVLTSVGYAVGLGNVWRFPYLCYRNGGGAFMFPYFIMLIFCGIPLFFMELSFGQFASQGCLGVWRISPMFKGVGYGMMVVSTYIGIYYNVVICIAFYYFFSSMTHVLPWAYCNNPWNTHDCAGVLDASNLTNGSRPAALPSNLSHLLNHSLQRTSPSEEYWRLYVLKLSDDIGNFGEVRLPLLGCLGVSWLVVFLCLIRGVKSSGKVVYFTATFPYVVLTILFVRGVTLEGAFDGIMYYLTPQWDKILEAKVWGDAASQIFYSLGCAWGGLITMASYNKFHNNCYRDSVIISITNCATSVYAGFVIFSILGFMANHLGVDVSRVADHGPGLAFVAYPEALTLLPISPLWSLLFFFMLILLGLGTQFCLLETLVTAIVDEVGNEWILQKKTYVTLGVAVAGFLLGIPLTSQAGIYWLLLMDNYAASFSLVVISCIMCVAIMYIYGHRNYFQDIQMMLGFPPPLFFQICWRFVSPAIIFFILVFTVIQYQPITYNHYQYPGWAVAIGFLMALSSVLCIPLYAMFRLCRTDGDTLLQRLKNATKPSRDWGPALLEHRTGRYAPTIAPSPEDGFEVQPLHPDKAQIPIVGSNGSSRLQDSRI
Put plainly: Radioligand binding assay using recombinant CHO cell membranes expressing human GlyT1. An excerpt:
2. Radioligand binding assays using recombinant CHO cell membranes expressing human GlyT1: […]

[1] abbreviates: radioligand binding to human GlyT1c transporter-expressing membranes.
[2] abbreviates: radioligand binding, recombinant CHO cell membranes expressing human GlyT1c.

For `NC(=O)c1ccccc1S(=O)(=O)N1C[C@@H](Nc2cc(C(F)(F)F)ccn2)[C@H](c2ccccc2)C1` (relative stereo) [Example 526, 2-{[trans-3-phenyl-4-{[4-(trifluoromethyl)pyridin-2-yl]amino}pyrrolidin-1-yl]sulfonyl}benzamide], the Ki under setting [1] is not above 10000 nM. For the compound `Cn1cnc(S(=O)(=O)N2C[C@@H](Nc3cccc(Cl)c3)[C@H](C3CCOC3)C2)c1` (relative stereo) [Example 829, trans-N-(3-chlorophenyl)-1-[(1-methyl-1H-imidazol-4-yl)sulfonyl]-4-(tetrahydrofuran-3-yl)pyrrolidin-3-amine], under setting [2], the Ki is not above 10000 nM. On to `Cn1cnc(S(=O)(=O)N2C[C@@H](C(=O)c3cccc(Cl)c3)[C@H](c3ccc(F)cc3)C2)c1` (relative stereo) [Example 297, (3-chlorophenyl){trans-4-(4-fluorophenyl)-1-[(1-methyl-1H-imidazol-4-yl)sulfonyl]pyrrolidin-3-yl}methanone], for which the Ki under setting [1] was not above 10 nM. Take `Cn1cnc(S(=O)(=O)N2C[C@H](Nc3cc(OC4CCCC4)ncn3)[C@@H](c3ccc(F)cc3)C2)c1` [Example 720, 6-(cyclopentyloxy)-N-{(3R,4S)-4-(4-fluorophenyl)-1-[(1-methyl-1H-imidazol-4-yl)sulfonyl]pyrrolidin-3-yl}pyrimidin-4-amine]: the Ki under setting [1] was not above 100 nM. Still for that read-out and setting: to `Cn1cnc(S(=O)(=O)N2C[C@@H](C(=O)Nc3cc(Cl)cc(Cl)c3)[C@H](c3ccc(F)cc3)C2)c1` (relative stereo) [Example 244, Trans-N-(3,5-dichlorophenyl)-4-(4-fluorophenyl)-1-[(1-methyl-1H-imidazol-4-yl)sulfonyl]pyrrolidine-3-carboxamide] belongs not above 1000 nM; to `Cn1cnc(S(=O)(=O)N2C[C@@H](C(=O)c3ccc(OC(F)(F)F)cc3)[C@H](c3ccc(F)cc3)C2)c1` (relative stereo) [Example 363, {Trans-4-(4-fluorophenyl)-1-[(1-methyl-1H-imidazol-4-yl)sulfonyl]pyrrolidin-3-yl}[4-(trifluoromethoxy)phenyl]methanone], not above 100 nM; to `Cc1nc(N[C@H]2CN(S(=O)(=O)c3cn(C)cn3)C[C@@H]2c2ccc(F)cc2)cc(C(F)(F)F)n1` [Example 615, N-{(3R,4S)-4-(4-fluorophenyl)-1-[(1-methyl-1H-imidazol-4-yl)sulfonyl]pyrrolidin-3-yl}-2-methyl-6-(trifluoromethyl)pyrimidin-4-amine], not above 1000 nM. Same read-out and setting: the result for `Cn1cnc(S(=O)(=O)N2C[C@@H](NCc3ccc(Cl)cc3Cl)[C@H](c3ccccc3Cl)C2)c1` (relative stereo) [Example 284, trans-4-(2-chlorophenyl)-N-(2,4-dichlorobenzyl)-1-[(1-methyl-1H-imidazol-4-yl)sulfonyl]pyrrolidin-3-amine] reads not above 100 nM; that for `Cn1cnc(S(=O)(=O)N2C[C@@H](NCc3ccncc3)[C@H](c3ccc(F)cc3)C2)c1` (relative stereo) [Example 270, trans-4-(4-fluorophenyl)-1-[(1-methyl-1H-imidazol-4-yl)sulfonyl]-N-(pyridin-4-ylmethyl)pyrrolidin-3-amine], not above 10000 nM.

On to `Cn1cnc(S(=O)(=O)N2C[C@H](Nc3cc(C(F)(F)F)c(F)cn3)[C@@H](c3ccc(F)cc3)C2)c1` [Example 865, 5-fluoro-N-{(3R,4S)-4-(4-fluorophenyl)-1-[(1-methyl-1H-imidazol-4-yl)sulfonyl]pyrrolidin-3-yl}-4-(trifluoromethyl)pyridin-2-amine], for which the Ki under setting [2] is not above 10 nM. In the case of `Cn1cnc(S(=O)(=O)N2C[C@@H](NC(=O)c3ccc(C(F)(F)F)cc3Cl)[C@H](c3ccc(F)cc3)C2)c1` (relative stereo) [Example 62, 2-chloro-N-{trans-4-(4-fluorophenyl)-1-[(1-methyl-1H-imidazol-4-yl)sulfonyl]pyrrolidin-3-yl}-4-(trifluoromethyl)benzamide], the Ki under setting [1] was not above 100 nM. The same measure, in the same setting: to `CCCC(F)(F)C(=O)N[C@H]1CN(S(=O)(=O)c2cn(C)cn2)C[C@@H]1c1ccc(F)cc1` [Example 700, 2,2-difluoro-N-{(3R,4S)-4-(4-fluorophenyl)-1-[(1-methyl-1H-imidazol-4-yl)sulfonyl]pyrrolidin-3-yl}pentanamide] belongs not above 10000 nM; to `Cn1cnc(S(=O)(=O)N2C[C@@H](Nc3cccc(Cl)c3)[C@H](c3ccc(F)cc3)C2)c1` [Example 325, (3S,4R)-N-(3-chlorophenyl)-4-(4-fluorophenyl)-1-[(1-methyl-1H-imidazol-4-yl)sulfonyl]pyrrolidin-3-amine], not above 1000 nM; to `Cn1cnc(S(=O)(=O)N2C[C@@H](COc3cccc(C(F)(F)F)c3Cl)[C@H](c3ccc(F)cc3)C2)c1` (relative stereo) [Example 250, 4-{[trans-3-{[2-chloro-3-(trifluoromethyl)phenoxy]methyl}-4-(4-fluorophenyl)pyrrolidin-1-yl]sulfonyl}-1-methyl-1H-imidazole], not above 10000 nM. On the same count and under the same terms, to `Cn1cnc(S(=O)(=O)N2C[C@@H](Nc3cccc(C(F)(F)F)c3)[C@H](c3ccccn3)C2)c1` (relative stereo) [Example 344, trans-1-[(1-methyl-1H-imidazol-4-yl)sulfonyl]-4-(pyridin-2-yl)-N-[3-(trifluoromethyl)phenyl]pyrrolidin-3-amine] belongs not above 100 nM; to `Cn1cnc(S(=O)(=O)N2C[C@@H](Nc3ccncc3)[C@H](c3cccc(F)c3)C2)c1` (relative stereo) [Example 191, N-{trans-4-(3-fluorophenyl)-1-[(1-methyl-1H-imidazol-4-yl)sulfonyl]pyrrolidin-3-yl}pyridin-4-amine], not above 10000 nM; to `Cn1cnc(S(=O)(=O)N2C[C@@H](NC(=O)c3cccc(C(F)(F)F)c3Cl)[C@H](c3ccccc3)C2)c1Cl` (relative stereo) [Example 48, 2-chloro-N-{trans-1-[(5-chloro-1-methyl-1H-imidazol-4-yl)sulfonyl]-4-phenylpyrrolidin-3-yl}-3-(trifluoromethyl)benzamide], not above 10000 nM. Still for that read-out and setting: to `Cn1cnc(S(=O)(=O)N2C[C@H](NC(=O)Nc3ccc(F)cc3)[C@@H](c3ccc(F)cc3)C2)c1` [Example 704, 1-(4-fluorophenyl)-3-{(3R,4S)-4-(4-fluorophenyl)-1-[(1-methyl-1H-imidazol-4-yl)sulfonyl]pyrrolidin-3-yl}urea] belongs not above 1000 nM; to `Cn1cnc(S(=O)(=O)N2C[C@@H](Nc3cccc(C(C)(C)C)c3)[C@H](c3ccccc3)C2)c1` (relative stereo) [Example 221, trans-N-(3-tert-butylphenyl)-1-[(1-methyl-1H-imidazol-4-yl)sulfonyl] -4-phenylpyrrolidin-3-amine], not above 1000 nM; to `CCCC1CC1CN[C@H]1CN(S(=O)(=O)c2cn(C)cn2)C[C@@H]1c1ccccc1` (stereo partly drawn) [Example 650, (3R,4S)-1-[(1-methyl-1H-imidazol-4-yl)sulfonyl]-4-phenyl-N-[(2-propylcyclopropyl)methyl]pyrrolidin-3-amine], not above 1000 nM. Turning to `Cn1cnc(S(=O)(=O)N2C[C@H](NC(=O)Nc3ccccc3Cl)[C@@H](c3ccc(F)cc3)C2)c1` [Example 694, 1-(2-chlorophenyl)-3-{(3R,4S)-4-(4-fluorophenyl)-1-[(1-methyl-1H-imidazol-4-yl)sulfonyl]pyrrolidin-3-yl}urea], the Ki under setting [1] was not above 1000 nM.

In the case of `Cn1cnc(S(=O)(=O)N2C[C@@H](CNc3ccc(F)c(Cl)c3)[C@H](c3ccc(F)cc3)C2)c1` (relative stereo) [Example 314, 3-chloro-4-fluoro-N-({trans-4-(4-fluorophenyl)-1-[(1-methyl-1H-imidazol-4-yl)sulfonyl]pyrrolidin-3-yl}methyl)aniline], the Ki under setting [1] was not above 1000 nM. On to `Cn1cnc(S(=O)(=O)N2C[C@@H](Nc3ccc(F)cc3F)[C@H](c3ccc(F)cc3)C2)c1` (relative stereo) [Example 165, trans-N-(2,4-difluorophenyl)-4-(4-fluorophenyl)-1-[(1-methyl-1H-imidazol-4-yl)sulfonyl]pyrrolidin-3-amine], for which the Ki under setting [1] is not above 1000 nM. The same measure, in the same setting: to `Cn1cnc(S(=O)(=O)N2C[C@@H](Nc3ccc(F)cc3F)[C@H](c3ccccc3)C2)c1` (relative stereo) [Example 233, trans-N-(2,4-difluorophenyl)-1-[(1-methyl-1H-imidazol-4-yl)sulfonyl]-4-phenylpyrrolidin-3-amine] belongs not above 10000 nM; to `Cn1cnc(S(=O)(=O)N2C[C@@H](Nc3ccc4cnccc4c3)[C@H](c3ccccc3)C2)c1` (relative stereo) [Example 230, N-{trans-1-[(1-methyl-1H-imidazol-4-yl)sulfonyl]-4-phenylpyrrolidin-3-yl}isoquinolin-6-amine], not above 10000 nM; to `Cn1cnc(S(=O)(=O)N2C[C@@H](NCc3ccc(C(F)(F)F)cc3Cl)[C@H](c3ccccc3Cl)C2)c1` (relative stereo) [Example 285, trans-4-(2-chlorophenyl)-N-[2-chloro-4-(trifluoromethyl)benzyl]-1-[(1-methyl-1H-imidazol-4-yl)sulfonyl]pyrrolidin-3-amine], not above 100 nM.
